Measurements taken from paper PMC9655728, “In Vitro and In Silico Analysis of New n-Butyl and Isobutyl Quinoxaline-7-carboxylate 1,4-di-N-oxide Derivatives against Trypanosoma cruzi as Trypanothione Reductase Inhibitors” (International Journal of Molecular Sciences, 2022).

Experiments:
Format in all cases: biochemical
[1] = target: T1, human glutathione reductase (hGR) (Homo sapiens, UniProt P00390); experiment: spectrophotometric NADPH consumption ([…] nm) with GSSG; Lineweaver-Burk and non-linear regression
T1 construct: gene GSR; recombinant human glutathione reductase
T1 sequence (P00390 44-522): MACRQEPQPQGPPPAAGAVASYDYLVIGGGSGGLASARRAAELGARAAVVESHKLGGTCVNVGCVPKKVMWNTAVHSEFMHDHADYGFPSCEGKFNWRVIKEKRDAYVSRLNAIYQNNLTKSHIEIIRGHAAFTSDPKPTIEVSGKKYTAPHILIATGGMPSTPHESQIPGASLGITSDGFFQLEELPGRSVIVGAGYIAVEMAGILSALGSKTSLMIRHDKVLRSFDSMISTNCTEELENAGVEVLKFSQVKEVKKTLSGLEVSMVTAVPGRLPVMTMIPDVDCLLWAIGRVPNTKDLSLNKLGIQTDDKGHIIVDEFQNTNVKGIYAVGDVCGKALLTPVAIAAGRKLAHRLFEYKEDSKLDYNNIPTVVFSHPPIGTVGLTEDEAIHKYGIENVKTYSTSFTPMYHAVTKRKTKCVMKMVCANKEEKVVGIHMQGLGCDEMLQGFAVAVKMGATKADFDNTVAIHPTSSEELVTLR

[2] = target: T2, trypanothione reductase (TR) (Trypanosoma brucei, UniProt P39051); experiment: spectrophotometric NADPH consumption ([…] nm) with TS2; Lineweaver-Burk and non-linear regression
T2 construct: gene TPR; recombinant Trypanosoma brucei TR
T2 sequence (P39051 whole entry): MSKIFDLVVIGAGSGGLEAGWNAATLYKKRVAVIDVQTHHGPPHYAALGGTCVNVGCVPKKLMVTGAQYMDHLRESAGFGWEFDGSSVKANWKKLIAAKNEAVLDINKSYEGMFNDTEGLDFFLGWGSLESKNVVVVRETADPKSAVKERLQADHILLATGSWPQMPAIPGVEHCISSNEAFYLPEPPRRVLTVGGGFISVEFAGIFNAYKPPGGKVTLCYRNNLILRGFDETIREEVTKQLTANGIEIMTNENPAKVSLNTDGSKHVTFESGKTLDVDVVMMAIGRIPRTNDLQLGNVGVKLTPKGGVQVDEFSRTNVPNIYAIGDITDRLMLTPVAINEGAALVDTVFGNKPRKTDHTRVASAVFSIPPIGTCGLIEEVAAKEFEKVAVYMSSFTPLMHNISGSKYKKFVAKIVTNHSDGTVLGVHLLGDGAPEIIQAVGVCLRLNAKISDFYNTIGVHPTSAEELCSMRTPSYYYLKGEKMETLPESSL

[3] = target: T2, trypanothione reductase (TR); experiment: spectrophotometric NADPH consumption ([…] nm) with TS2; % inhibition at […] ([…] TS2); settings: read-out: % Inhibition of TR / 44 μM [TS2]

## CCCCOC(=O)c1ccc2c(c1)[n+]([O-])c(C(=O)C(C)(C)C)c(C(F)(F)F)[n+]2[O-] [T-147]
[1]
  Ki: 25 µM
[2]
  Ki: 11.4 µM

## CCCCOC(=O)c1ccc2c(c1)[n+]([O-])c(C(=O)c1ccccc1)c(C(F)(F)F)[n+]2[O-] [T-148]
[3]
  inhibition at 20 µM: 36%
